In brackets after ≈: the same amount, converted by molar mass. Several values for one entry are separate records, joined by “and”; a condition that tells them apart may be missing. Identical values can stand only once. Like-named read-outs stand apart in the source and are kept apart here. Numbered stars: 1 amine (or outer) side, 2 acyl side, 3 side chain; on linkers, the order of the positions; unused ones are H or OH. Square brackets hold non-standard residues; d marks the D form. Peptide text beside a SMILES is read from it. dTyr(βR-OH) = N[C@@H](C(=O)O)[C@H](O)c1ccc(O)cc1; X1 = CCCCCCCCCCCCNCC[C@H](CC(=O)[*:2])N[*:1]; Asn(3S-OH) = NC(=O)[C@@H](O)[C@H](N)C(=O)O; dDab = NCC[C@@H](N)C(=O)O

The test system of assay [1] is Trichophyton mentagrophytes 28641. In words: MIC susceptibility testing (CLSI M38-A2). Particulars: Trichophyton mentagrophytes, 28641, 96 h, read-out: Voriconazole MIC. Format: cell-based. The method, then:
(§1) Minimum inhibitory concentration (MIC) susceptibility testing was performed according to the CLSI M27-A3 and M38-A2 standards for the susceptibility testing of yeasts and filamentous fungi, respectively. Incubation temperature was at 35° C. and the inoculum size was 0.5-2.5×10^3 colony-forming units (CFU)/mL and 0.4-5×10^4 conidia/mL for yeasts and filamentous fungi, respectively. Inoculum concentration for dermatophytes was 1-3×10^3 conidia/mL. RPMI was used throughout as the growth medium and Cryptococcus strains were tested in YNB. […] Voriconazole MICs were recorded at 80% inhibition after 96 hours of incubation for dermatophytes. S. cerevisiae deletion mutants were obtained from the commercially available BY4741 deletion library (Thermo Scientific). Susceptibility testing was carried out on inoculum size of 0.5-1×10^4 cells/ml in YPD media at 30° C. and MICs recorded after 48 and 60 hours.

Assay [2] deals with Aspergillus flavus 28517. In words: MIC susceptibility testing (CLSI M38-A2). Format: cell-based. The conditions noted are these: Aspergillus flavus, 28517, 48 h, read-out: Voriconazole MIC. The method, then: as §1
Assay [3] has as its system Aspergillus flavus 28445. Kind of assay: MIC susceptibility testing (CLSI M38-A2). The assay is classed as cell-based. The conditions noted are these: Aspergillus flavus, 28445, 48 h, read-out: Voriconazole MIC. How it is done:
as §1

The test system of assay [4] is Trichophyton rubrum 28658. Kind of assay: MIC susceptibility testing (CLSI M38-A2). Format: cell-based. Particulars: Trichophyton rubrum, 28658, 96 h, read-out: Voriconazole MIC. The method, then: as §1
Assay [5] relates to Aspergillus fumigatus 28435. In words: MIC susceptibility testing (CLSI M38-A2). The conditions noted are these: Aspergillus fumigatus, 28435, 48 h, read-out: Voriconazole MIC. Format: cell-based. How it is done: as §1
Assay [6] has as its system Trichophyton rubrum 11199. In words: MIC susceptibility testing (CLSI M38-A2). Particulars: Trichophyton rubrum, 11199, 96 h, read-out: Voriconazole MIC. Format: cell-based. How it is done: as §1
Assay [7] relates to Fusarium solani 28386. In words: MIC susceptibility testing (CLSI M38-A2). Format: cell-based. Particulars: Fusarium solani, 28386, 48 h, read-out: Voriconazole MIC. How it is done:
as §1

Assay [8] concerns Mucor circinelloides 19445. Kind of assay: MIC susceptibility testing (CLSI M38-A2). The assay is classed as cell-based. Particulars: Mucor circinelloides, 19445, 24 h, read-out: Voriconazole MIC. The method, then:
as §1

For assay [9], the system named is Trichophyton mentagrophytes 10207. Kind of assay: MIC susceptibility testing (CLSI M38-A2). Format: cell-based. The conditions noted are these: Trichophyton mentagrophytes, 10207, 96 h, read-out: Voriconazole MIC. How it is done:
as §1

The test system of assay [10] is Fusarium oxysporum 27718. In words: MIC susceptibility testing (CLSI M38-A2). Format: cell-based. Particulars: Fusarium oxysporum, 27718, 48 h, read-out: Voriconazole MIC. How it is done:
as §1

For assay [11], the system named is Mucor fragdis 27782. In words: MIC susceptibility testing (CLSI M38-A2). The assay is classed as cell-based. The conditions noted are these: Mucor, 27782, 24 h, read-out: Voriconazole MIC. The method, then:
as §1

In assay [12] the test system is Mucor racemosus 27784. Kind of assay: MIC susceptibility testing (CLSI M38-A2). The assay is classed as cell-based. The conditions noted are these: Mucor racemosus, 27784, 24 h, read-out: Voriconazole MIC. The method, then:
as §1

In assay [13] the test system is Fusarium solani 18749. In words: MIC susceptibility testing (CLSI M38-A2). The assay is classed as cell-based. The conditions noted are these: Fusarium solani, 18749, 48 h, read-out: Voriconazole MIC. How it is done:
as §1

Assay [14] relates to Aspergillus fumigatus 28436. Kind of assay: MIC susceptibility testing (CLSI M38-A2). The assay is classed as cell-based. Particulars: Aspergillus fumigatus, 28436, 48 h, read-out: Voriconazole MIC. How it is done: as §1
Assay [15] relates to Aspergillus fumigatus 28434. In words: MIC susceptibility testing (CLSI M38-A2). Format: cell-based. Particulars: Aspergillus fumigatus, 28434, 48 h, read-out: Voriconazole MIC. The method, then:
as §1

Assay [16] relates to Trichophyton mentagrophytes 28556. In words: MIC susceptibility testing (CLSI M38-A2). The assay is classed as cell-based. Particulars: Trichophyton mentagrophytes, 28556, 96 h, read-out: Voriconazole MIC. The method, then:
as §1

The subject of assay [17] is Trichophyton rubrum 28659. In words: MIC susceptibility testing (CLSI M38-A2). The conditions noted are these: Trichophyton rubrum, 28659, 96 h, read-out: Voriconazole MIC. Format: cell-based. How it is done: as §1
For assay [18], the system named is Rhizopus oryzae 28403. Kind of assay: MIC susceptibility testing (CLSI M38-A2). The assay is classed as cell-based. Particulars: Rhizopus arrhizus, 28403, 24 h, read-out: Voriconazole MIC. How it is done:
as §1

In assay [19] the test system is Aspergillus flavus 28455. In words: MIC susceptibility testing (CLSI M38-A2). Format: cell-based. Particulars: Aspergillus flavus, 28455, 48 h, read-out: Voriconazole MIC. The method, then:
as §1

Assay [20] concerns Rhizopus microsporus 27785. In words: MIC susceptibility testing (CLSI M38-A2). The assay is classed as cell-based. Particulars: Rhizopus microsporus, 27785, 24 h, read-out: Voriconazole MIC. The method, then: as §1
In assay [21] the test system is Rhizopus microsporus 28506. In words: MIC susceptibility testing (CLSI M38-A2). The assay is classed as cell-based. The conditions noted are these: Rhizopus microsporus, 28506, 24 h, read-out: Voriconazole MIC. The method, then: as §1
Assay [22] addresses T1, F-actin (Oryctolagus cuniculus, UniProt P68135). Set-up: Purified rabbit skeletal muscle filamentous actin (AKF99); purchased Cytoskeleton Inc. (Denver, CO) AKF99; host or cells: rabbit skeletal muscle. The conditions noted are these: co-sedimentation assay, published previously (Ravichandran et al.), read-out: Kd, binding to actin; cited from earlier work.
Assay [23] addresses T1, F-actin. Kind of assay: Pyrene labeled actin depolymerization assay. Format: biochemical. Set-up: purchased Cytoskeleton, Inc. (Denver, CO) BK003. Particulars: 5 μM; for pyrene fluorescent reading following incubation in depolymerization buffer: no drug control at 2,500 AU. The method, then:
(§2) Actin polymerization and depolymerization assays were performed using the Actin polymerization biochem kit (#BK003; Cytoskeleton, Inc. Denver, CO) following the manufacturer's instructions with some modifications. Briefly, for the polymerization assay, G-actin stock solution was made at 0.2 mg/mL instead of 0.4 mg/mL. For the depolymerization assay, F-actin stock solution was diluted 9-fold instead of 5-fold. […] The experiments were done in duplicate.

Assay [24] deals with T2, actin (Oryctolagus cuniculus, UniProt P68135).
T2 construct: purchased Cytoskeleton, Inc. (Denver, CO) BK003
Kind of assay: Pyrene labeled actin polymerization assay. Format: biochemical. The conditions noted are these: 5 μM; approximately one hour after incubation in the polymerization buffer. How it is done: as §2

Assay [25] relates to S. cerevisiae DGY6 haploid BY4741. The assay is classed as cell-based. The conditions noted are these: Saccharomyces cerevisiae DGY6 haploid BY4741; 24 hours, 35° C. How it is done: (§3) MIC assays were performed in duplicate as previously described following a modified version of the CLSI M27-A3 methods.
(§4) Minimum inhibitory concentration (MIC) susceptibility testing was performed following a modified version, as previously reported, of the CLSI M27-A3 methods for the susceptibility testing of yeasts. Incubation temperature was 35° C. and the inoculum size was 0.5-2.5×10^3 colony-forming units (CFU)/mL for yeasts. MICs were performed to determine the bioactivity of each new OF-Δxyl analogue (Table 3).

For assay [26], the target named is T1, F-actin. Kind of assay: Actin co-sedimentation assay. Format: binding, rabbit. Further details: Purified rabbit skeletal muscle filamentous actin (AKF99); purchased Cytoskeleton Inc. (Denver, CO) AKF99; host or cells: rabbit skeletal muscle.
The test system of assay [27] is Candida albicans ATCC 3147. The assay is classed as cell-based. Particulars: 24 hours, 35° C., listed as dihydrosphingosine. The method, then:
as §3, §4

The test system of assay [28] is Candida glabrata ATCC 2001. Kind of assay: Minimum inhibitory concentration (MIC) assay, modified CLSI M27-A3. Format: cell-based. The conditions noted are these: 24 hours, 35° C. How it is done:
as §3, §4

As to `C[C@@H](c1ncncc1F)[C@](O)(Cn1cncn1)c1ccc(F)cc1F` [Voriconazole], the MIC (commonly the smallest concentration in the dilution series that meets the test's criterion for growth inhibition) amounted to 0.06 µg/mL (≈ 0.172 µM) in assay [1]; 1 µg/mL (≈ 2.86 µM) in assay [2]; 2 µg/mL (≈ 5.73 µM) in assay [3]; 0.03 µg/mL (≈ 0.0859 µM) in assay [4]; 1 µg/mL (≈ 2.86 µM) in assay [5]; 0.008 µg/mL (≈ 0.0229 µM) in assay [6]. Further, the MIC was more than 16 µg/mL in assay [7]; more than 16 µg/mL in assay [8]; 0.25 µg/mL (≈ 0.716 µM) in [9]; more than 16 µg/mL in assay [10]; more than 16 µg/mL in assay [11]; more than 16 µg/mL in assay [12]. The MIC is more than 16 µg/mL in [13]; 1 µg/mL (≈ 2.86 µM) in assay [14]; 1 µg/mL (≈ 2.86 µM) in assay [15]; 0.06 µg/mL (≈ 0.172 µM) in [16]; 0.03 µg/mL (≈ 0.0859 µM) in assay [17]; more than 16 µg/mL in [18]. Also, the MIC in [19] is 2 µg/mL (≈ 5.73 µM); in assay [20] it was more than 16 µg/mL; in [21], 16 µg/mL (≈ 45.8 µM).
phalloidin: in assay [22], the Kd (in general, a measure of binding affinity in units of concentration) is ~8 nM and 8 nM. Besides, in assay [23], the “effect on polymerization or depolymerization of actin” value is given as “completely blocked the depolymerization of F-actin” and the “pyrene fluorescent reading following incubation in depolymerization buffer” value is “above 5,000 AU”. In addition, the “pyrene fluorescence reading, plateau in polymerization buffer” value in assay [24] is “around 19,000 AU”.
In the case of `CCCCCCCCCCCCNCC[C@@H]1CC(=O)N[C@H](CO)C(=O)N[C@H]([C@H](O)c2ccc(O)cc2)C(=O)N[C@H](CCN)C(=O)NCC(=O)N[C@@H](CC(N)=O)C(=O)N[C@@H](CO)C(=O)N[C@@H]([C@H](O)C(N)=O)C(=O)N1` [Dodecylamine containing OF-Δxyl analogue] (cyclo(GNS[Asn(3S-OH)][X1][dS][dTyr(βR-OH)][dDab])), in assay [25], the MIC was more than 4 µg/mL. For the same compound, binding in [26] was characterised by a dissociation constant (Kd) of 4200 nM. Also, in [26] (versus native occidiofungin), the “fold lower binding affinity to actin than native compound” value is given as approximately 4 fold.
As for `CCCCCCCCCCCCCCCC(O)C(CO)NCC[C@@H]1CC(=O)N[C@H](CO)C(=O)N[C@H]([C@H](O)c2ccc(O)cc2)C(=O)N[C@H](CCN)C(=O)NCC(=O)N[C@@H](CC(N)=O)C(=O)N[C@@H](CO)C(=O)N[C@@H]([C@H](O)C(N)=O)C(=O)N1` (mixture of isomers), the “effect on polymerization or depolymerization of actin” value in [23] is recorded as “did not interfere with polymerization or depolymerization of actin”. In addition, the “pyrene fluorescent reading following incubation in depolymerization buffer” value in assay [23] is 2,500 AU. Besides, the MIC in [25] is 2 µg/mL; in [27], 16 µg/mL; in assay [28] it was 8 µg/mL. Besides, binding in [26] was characterised by a dissociation constant (Kd) of 25 nM. Besides, the “fold lower saturation of binding ratio than native occidiofungin” value in assay [26] (versus native occidiofungin) came to 13.5 fold. Also, the “pyrene fluorescence reading, plateau in polymerization buffer” value in assay [24] is on record as ~21,000 AU.

Values taken from patent publication US12102615B2 (THE TEXAS A&M UNIVERSITY SYSTEM, priority 2018, dated 2024).
